Like-named read-outs stand apart in the source and are kept apart here.
Molecular target: T1, CFTR (Homo sapiens, UniProt P13569)
T1 construct: endogenous in cells; host or cells: T84 human colonic cells (ECACC)
Experiment: T84 assay (FLIPR membrane potential dye, forskolin/IBMX-stimulated CFTR channel activity)
Format: cell-based
How it was run: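 Fluorescence from a membrane potential dye in T84 monolayers (HBSS with 10 mM Hepes) is followed each second for 150 s. Cells are exposed to test compound during the 45 min dye loading, then challenged with forskolin (10 μM) and IBMX (100 μM) to open CFTR. Inhibitors suppress the depolarization-driven fluorescence increase.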

[1] = imidazole and triazole-containing compounds (Tables 13, 14, 14′), read-out: IC50 (μM) (T84 assay)
[2] = oxadiazole-containing compounds (a series), average of at least 2 runs unless annotated n = 1, read-out: IC50

T1 sequence (P13569 whole entry): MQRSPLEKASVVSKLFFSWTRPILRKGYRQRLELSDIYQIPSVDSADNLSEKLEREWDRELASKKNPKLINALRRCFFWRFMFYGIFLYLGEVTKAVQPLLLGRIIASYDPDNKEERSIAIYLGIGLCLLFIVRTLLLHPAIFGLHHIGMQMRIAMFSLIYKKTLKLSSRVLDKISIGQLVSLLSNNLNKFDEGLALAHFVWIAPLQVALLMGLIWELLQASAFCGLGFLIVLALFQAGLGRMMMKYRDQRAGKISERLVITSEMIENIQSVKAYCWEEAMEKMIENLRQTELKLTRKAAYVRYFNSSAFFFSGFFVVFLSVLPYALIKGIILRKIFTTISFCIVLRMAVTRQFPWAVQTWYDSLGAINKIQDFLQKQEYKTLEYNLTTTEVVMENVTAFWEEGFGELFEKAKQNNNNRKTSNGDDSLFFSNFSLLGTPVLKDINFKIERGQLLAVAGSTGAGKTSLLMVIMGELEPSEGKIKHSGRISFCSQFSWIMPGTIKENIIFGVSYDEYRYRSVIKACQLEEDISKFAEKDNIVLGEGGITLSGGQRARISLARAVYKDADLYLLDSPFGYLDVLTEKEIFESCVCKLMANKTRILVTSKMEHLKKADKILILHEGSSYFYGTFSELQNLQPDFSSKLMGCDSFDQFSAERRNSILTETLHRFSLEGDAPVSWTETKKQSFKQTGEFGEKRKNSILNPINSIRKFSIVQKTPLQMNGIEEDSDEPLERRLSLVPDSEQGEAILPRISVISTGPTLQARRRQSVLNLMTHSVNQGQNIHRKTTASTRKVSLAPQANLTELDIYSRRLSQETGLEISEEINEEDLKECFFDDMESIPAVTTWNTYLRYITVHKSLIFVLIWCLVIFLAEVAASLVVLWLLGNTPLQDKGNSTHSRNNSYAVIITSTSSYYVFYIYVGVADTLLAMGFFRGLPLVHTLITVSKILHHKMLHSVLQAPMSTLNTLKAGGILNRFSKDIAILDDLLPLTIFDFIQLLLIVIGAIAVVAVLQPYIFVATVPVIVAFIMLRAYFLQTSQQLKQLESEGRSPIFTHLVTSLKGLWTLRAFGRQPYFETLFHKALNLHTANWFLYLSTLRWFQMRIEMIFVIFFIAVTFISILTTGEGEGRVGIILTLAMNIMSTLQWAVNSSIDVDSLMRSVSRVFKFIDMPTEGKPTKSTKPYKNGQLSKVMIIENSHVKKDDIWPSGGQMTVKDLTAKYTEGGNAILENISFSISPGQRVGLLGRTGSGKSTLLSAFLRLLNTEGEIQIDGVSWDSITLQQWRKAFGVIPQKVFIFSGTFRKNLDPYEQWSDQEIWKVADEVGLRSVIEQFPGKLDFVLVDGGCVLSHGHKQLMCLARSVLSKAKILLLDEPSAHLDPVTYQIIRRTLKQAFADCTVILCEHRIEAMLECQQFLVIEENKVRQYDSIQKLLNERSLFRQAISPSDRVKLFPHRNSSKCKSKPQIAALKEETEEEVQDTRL

Row | SMILES | IC50 [1] | IC50 [2]
1 | COCCOCCOCCON(Cc1ccc(Oc2ccccc2)cc1)C(=O)c1ncn(-c2cc(Cl)c(O)c(Cl)c2)n1 [123i, 1-(3,5-dichloro-4-hydroxyphenyl)-N-(2-(2-(2-methoxyethoxy)ethoxy)ethoxy)-N-(4-phenoxybenzyl)-1H-1,2,4-triazole-3-carboxamide] | 8.44 µM | –
2 | O=C(NCc1ccc(C(F)(F)F)cc1F)c1nc(-c2cc(Cl)c(O)c(Cl)c2)no1 [124a, 3-(3,5-dichloro-4-hydroxyphenyl)-N-(2-fluoro-4-(trifluoromethyl)benzyl)-1,2,4-oxadiazole-5-carboxamide] | – | 14.6 µM
3 | O=C(NCc1cccc(-c2ccccc2)c1)c1nc(-c2cc(Cl)c(O)c(Cl)c2)no1 [125a, N-(biphenyl-3-ylmethyl)-3-(3,5-dichloro-4-hydroxyphenyl)-1,2,4-oxadiazole-5-carboxamide] | – | 6.76 µM
4 | O=C(NCc1cc(C(F)(F)F)ccc1F)c1nc(-c2cc(Cl)c(O)c(Cl)c2)no1 [126a, 3-(3,5-dichloro-4-hydroxyphenyl)-N-(2-fluoro-5-(trifluoromethyl)benzyl)-1,2,4-oxadiazole-5-carboxamide] | – | 23.4 µM
5 | CC(C)Oc1ccc(CNC(=O)c2nc(-c3cc(Cl)c(O)c(Cl)c3)no2)cc1 [127a, 3-(3,5-dichloro-4-hydroxyphenyl)-N-(4-isopropoxybenzyl)-1,2,4-oxadiazole-5-carboxamide] | – | 9.95 µM
6 | O=C(NCc1ccc(Cl)cc1)c1nc(-c2cc(Cl)c(O)c(Cl)c2)no1 [128a, N-(4-chlorobenzyl)-3-(3,5-dichloro-4-hydroxyphenyl)-1,2,4-oxadiazole-5-carboxamide] | – | 12.8 µM
7 | CON(Cc1ccc(C(C)C)cc1)C(=O)c1ncn(-c2cc(Cl)c(O)c(Cl)c2)n1 [128i, 1-(3,5-dichloro-4-hydroxyphenyl)-N-(4-isopropylbenzyl)-N-methoxy-1H-1,2,4-triazole-3-carboxamide] | 2.19 µM | –
8 | O=C(NCc1ccccc1C(F)(F)F)c1nc(-c2cc(Cl)c(O)c(Cl)c2)no1 [129a, 3-(3,5-dichloro-4-hydroxyphenyl)-N-(2-(trifluoromethyl)benzyl)-1,2,4-oxadiazole-5-carboxamide] | – | 16.7 µM
9 | O=C(NCc1ccc(F)c(Cl)c1)c1nc(-c2cc(Cl)c(O)c(Cl)c2)no1 [130a, N-(3-chloro-4-fluorobenzyl)-3-(3,5-dichloro-4-hydroxyphenyl)-1,2,4-oxadiazole-5-carboxamide] | – | 9.44 µM
10 | O=C(NCc1ccc(-c2ccccc2)cc1)c1nc(-c2cc(Cl)c(O)c(Cl)c2)no1 [131a, N-(biphenyl-4-ylmethyl)-3-(3,5-dichloro-4-hydroxyphenyl)-1,2,4-oxadiazole-5-carboxamide] | – | 6.83 µM
11 | O=C(NCc1ccc(F)cc1F)c1nc(-c2cc(Cl)c(O)c(Cl)c2)no1 [132a, 3-(3,5-dichloro-4-hydroxyphenyl)-N-(2,4-difluorobenzyl)-1,2,4-oxadiazole-5-carboxamide] | – | 16.1 µM
12 | CN(C)c1ccc(CNC(=O)c2nc(-c3cc(Cl)c(O)c(Cl)c3)no2)cc1 [133a, 3-(3,5-dichloro-4-hydroxyphenyl)-N-(4-(dimethylamino)benzyl)-1,2,4-oxadiazole-5-carboxamide] | – | 17.9 µM
13 | O=C(NCc1cccc(C(F)(F)F)c1)c1nc(-c2cc(Cl)c(O)c(Cl)c2)no1 [134a, 3-(3,5-dichloro-4-hydroxyphenyl)-N-(3-(trifluoromethyl)benzyl)-1,2,4-oxadiazole-5-carboxamide] | – | 8.65 µM
14 | O=C(NCc1cccc(OC(F)F)c1)c1nc(-c2cc(Cl)c(O)c(Cl)c2)no1 [135a, 3-(3,5-dichloro-4-hydroxyphenyl)-N-(3-(difluoromethoxy)benzyl)-1,2,4-oxadiazole-5-carboxamide] | – | 20.4 µM
15 | CC(C)(C)c1ccc(CNC(=O)c2nc(-c3cc(Cl)c(O)c(Cl)c3)no2)cc1 [136a, N-(4-tert-butylbenzyl)-3-(3,5-dichloro-4-hydroxyphenyl)-1,2,4-oxadiazole-5-carboxamide] | – | 2.95 µM
16 | O=C(NCc1cc(F)cc(F)c1)c1nc(-c2cc(Cl)c(O)c(Cl)c2)no1 [137a, 3-(3,5-dichloro-4-hydroxyphenyl)-N-(3,5-difluorobenzyl)-1,2,4-oxadiazole-5-carboxamide] | – | 24.4 µM

— patent publication US20100144733A1, “Compounds, compositions and methods comprising heteroaromatic derivatives” (Institute for OneWorld Health, priority 2008, published 2010)
